{
  "source": "patent US9302999B2",
  "about": "“Substituted triazoles as herbicides” (E. I. DU PONT DE NEMOURS AND COMPANY, priority 2012, dated 2016)",
  "format_in_all_cases": "in vivo",
  "key": {"[1]": {"tested_on": "ducksalad (Heteranthera limosa)", "experiment": "Test B flooded paddy: ducksalad", "settings": "Flood; 250 g ai/ha; applied to paddy water at 2-leaf stage; visually evaluated after 13 to 15 days", "how_it_was_run": "(§1)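 Plants were grown to the 2-leaf stage and pots flooded to 3 cm above soil. Compounds were applied directly into the paddy water, with depth kept for the test. After 13–15 days in greenhouse, response was rated visually against controls on a 0 (no effect) to 100 (complete control) scale.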"}, "corn (Zea mays)": {"tested_on": "corn (Zea mays)", "experiment": "Test C pre-/postemergence: corn", "how_it_was_run": "(§2)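 Preemergence on seeds in loam/sand, postemergence on 2–18 cm (1–4-leaf) plants in peat-based medium; compounds in non-phytotoxic solvent with surfactant. After 13–15 days in greenhouse, visual rating versus controls, 0 (no effect) to 100 (complete control).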"}, "[2]": {"tested_on": "sedge, umbrella (small-flower umbrella sedge Cyperus difformis)", "experiment": "Test B flooded paddy: sedge, umbrella", "settings": "Flood; 250 g ai/ha; applied to paddy water at 2-leaf stage; visually evaluated after 13 to 15 days", "how_it_was_run": "as §1"}, "[3]": {"tested_on": "chickweed (common chickweed, Stellaria media)", "experiment": "Test C postemergence: chickweed", "how_it_was_run": "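Crop and weed plants were grown in peat-vermiculite medium and treated postemergence at the 1- to 4-leaf stage (2-18 cm tall). After 13-15 days in a greenhouse, each species was rated visually against untreated controls on a 0-100 scale (0 no effect, 100 complete control).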"}, "[4]": {"tested_on": "winter wheat (Triticum aestivum)", "experiment": "Test C pre-/postemergence: winter wheat", "how_it_was_run": "as §2"}, "[5]": {"tested_on": "morningglory (Ipomoea coccinea)", "experiment": "Test C pre-/postemergence: morningglory", "how_it_was_run": "as §2"}, "[6]": {"tested_on": "large crabgrass (Digitaria sanguinalis)", "experiment": "Test C pre-/postemergence: large crabgrass", "how_it_was_run": "as §2"}, "[7]": {"tested_on": "barnyardgrass (Echinochloa crus-galli)", "experiment": "Test B flooded paddy: barnyardgrass", "settings": "Flood; 250 g ai/ha; applied to paddy water at 2-leaf stage; visually evaluated after 13 to 15 days", "how_it_was_run": "as §1"}, "[8]": {"tested_on": "ryegrass, Italian (Italian ryegrass, Lolium multiflorum)", "experiment": "Test C pre-/postemergence: ryegrass, Italian", "how_it_was_run": "as §2"}, "[9]": {"tested_on": "velvetleaf (Abutilon theophrasti)", "experiment": "Test A pre-/postemergence: velvetleaf", "how_it_was_run": "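Each species received preemergence soil-directed spraying and, at the same time, postemergence treatment of seedlings 2–10 cm tall. Formulation: non-phytotoxic solvent mixture including surfactant. Response assessed visually about ten days on, relative to untreated controls, 0–100 scale.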"}, "[10]": {"tested_on": "blackgrass (Alopecurus myosuroides)", "experiment": "Test C pre-/postemergence: blackgrass", "how_it_was_run": "as §2"}, "[11]": {"settings": "Postemergence, 62 g ai/ha, scale 0 to 100 (0 no effect, 100 complete control)"}, "[12]": {"settings": "Postemergence, 125 g ai/ha, scale 0 to 100, 0 no effect, 100 complete control"}, "[13]": {"settings": "Postemergence, 250 g ai/ha, scale 0 to 100"}, "[14]": {"settings": "Preemergence, 31 g ai/ha, scale of 0 to 100, 0 is no effect, 100 is complete control"}, "[15]": {"settings": "Preemergence, 62 g ai/ha, scale of 0 to 100, 0 is no effect, 100 is complete control"}, "[16]": {"settings": "Preemergence, 125 g ai/ha, scale 0 to 100, 0 no effect, 100 complete control"}, "[17]": {"settings": "Preemergence, 250 g ai/ha, scale 0 to 100, 0 no effect, 100 complete control"}, "[18]": {"settings": "Postemergence, 31 g ai/ha, scale 0 to 100 (0 no effect, 100 complete control)"}},
  "data": [
    {"smiles": "COc1nn(-c2cccc(F)c2)nc1Cc1ccnc(C(F)(F)F)c1", "note": "[Compound 139]", "values": [
      {"measurement": "Plant response rating, Ducksalad (0 to 100 scale, 0 is no effect, 100 is complete control)", "setting": "[1]", "result": 70},
      {"measurement": "Plant response rating, Corn", "setting": "corn (Zea mays); [11]", "result": 25},
      {"measurement": "Plant response rating, Corn", "setting": "corn (Zea mays); [12]", "result": 55},
      {"measurement": "Plant response rating, Corn", "setting": "corn (Zea mays); [13]", "result": 60},
      {"measurement": "Plant response rating, Corn", "setting": "corn (Zea mays); [14]", "result": 0},
      {"measurement": "Plant response rating, Corn", "setting": "corn (Zea mays); [15]", "result": 0},
      {"measurement": "Plant response rating, Corn", "setting": "corn (Zea mays); [16]", "result": 10},
      {"measurement": "Plant response rating, Corn", "setting": "corn (Zea mays); [17]", "result": 30},
      {"measurement": "Plant response rating, Sedge, Umbrella (0 to 100 scale, 0 is no effect, 100 is complete control)", "setting": "[2]", "result": 80},
      {"measurement": "Plant response rating, Chickweed", "setting": "[3]; 31 g ai/ha, scale 0 to 100 (0 no effect, 100 complete control)", "result": 75},
      {"measurement": "Plant response rating, Chickweed", "setting": "[3]; 62 g ai/ha, scale 0 to 100 (0 no effect, 100 complete control)", "result": 98},
      {"measurement": "Plant response rating, Chickweed", "setting": "[3]; 125 g ai/ha, scale 0 to 100, 0 no effect, 100 complete control", "result": 98},
      {"measurement": "Plant response rating, Chickweed", "setting": "[3]; 250 g ai/ha, scale 0 to 100", "result": 100},
      {"measurement": "Plant response rating, Wheat", "setting": "[4]; [18]", "result": 10},
      {"measurement": "Plant response rating, Wheat", "setting": "[4]; [11]", "result": 10},
      {"measurement": "Plant response rating, Wheat", "setting": "[4]; [12]", "result": 40},
      {"measurement": "Plant response rating, Wheat", "setting": "[4]; [13]", "result": 40},
      {"measurement": "Plant response rating, Wheat", "setting": "[4]; [15]", "result": 0},
      {"measurement": "Plant response rating, Wheat", "setting": "[4]; [16]", "result": 10},
      {"measurement": "Plant response rating, Wheat", "setting": "[4]; [17]", "result": 20},
      {"measurement": "Plant response rating, Morningglory", "setting": "[5]; [18]", "result": 55},
      {"measurement": "Plant response rating, Morningglory", "setting": "[5]; [11]", "result": 60},
      {"measurement": "Plant response rating, Morningglory", "setting": "[5]; [12]", "result": 60},
      {"measurement": "Plant response rating, Morningglory", "setting": "[5]; [13]", "result": 70},
      {"measurement": "Plant response rating, Morningglory", "setting": "[5]; [14]", "result": 15},
      {"measurement": "Plant response rating, Morningglory", "setting": "[5]; [15]", "result": 15},
      {"measurement": "Plant response rating, Morningglory", "setting": "[5]; [16]", "result": 35},
      {"measurement": "Plant response rating, Morningglory", "setting": "[5]; [17]", "result": 55},
      {"measurement": "Plant response rating, Crabgrass, Large", "setting": "[6]; [18]", "result": 40},
      {"measurement": "Plant response rating, Crabgrass, Large", "setting": "[6]; [11]", "result": 45},
      {"measurement": "Plant response rating, Crabgrass, Large", "setting": "[6]; [12]", "result": 55},
      {"measurement": "Plant response rating, Crabgrass, Large", "setting": "[6]; [13]", "result": 80},
      {"measurement": "Plant response rating, Crabgrass, Large", "setting": "[6]; [14]", "result": 100},
      {"measurement": "Plant response rating, Crabgrass, Large", "setting": "[6]; [15]", "result": 100},
      {"measurement": "Plant response rating, Crabgrass, Large", "setting": "[6]; [16]", "result": 100},
      {"measurement": "Plant response rating, Crabgrass, Large", "setting": "[6]; [17]", "result": 100},
      {"measurement": "Plant response rating, Barnyardgrass (0 to 100 scale, 0 is no effect, 100 is complete control)", "setting": "[7]", "result": 65},
      {"measurement": "Plant response rating, Ryegrass, Italian", "setting": "[8]; [18]", "result": 25},
      {"measurement": "Plant response rating, Ryegrass, Italian", "setting": "[8]; [11]", "result": 30},
      {"measurement": "Plant response rating, Ryegrass, Italian", "setting": "[8]; [12]", "result": 30},
      {"measurement": "Plant response rating, Ryegrass, Italian", "setting": "[8]; [13]", "result": 40},
      {"measurement": "Plant response rating, Ryegrass, Italian", "setting": "[8]; [14]", "result": 35},
      {"measurement": "Plant response rating, Ryegrass, Italian", "setting": "[8]; [15]", "result": 60},
      {"measurement": "Plant response rating, Ryegrass, Italian", "setting": "[8]; [17]", "result": 90},
      {"measurement": "Plant response rating, Velvetleaf", "setting": "[9]; Postemergence, 125 g ai/ha, 0 to 100 scale, 0 is no effect, 100 is complete control", "result": 90},
      {"measurement": "Velvetleaf plant response rating", "setting": "[9]; Postemergence, 500 g ai/ha, visual rating on 0 to 100 scale (0 no effect, 100 complete control), approximately ten days", "result": 100},
      {"measurement": "Plant response rating, Velvetleaf", "setting": "[9]; Preemergence, 125 g ai/ha, 0 to 100 scale where 0 is no effect and 100 is complete control", "result": 30},
      {"measurement": "Plant response rating, Velvetleaf", "setting": "[9]; Preemergence, 500 g ai/ha, 0 to 100 scale (0 no effect, 100 complete control)", "result": 90},
      {"measurement": "Plant response rating, Blackgrass", "setting": "[10]; [18]", "result": 35},
      {"measurement": "Plant response rating, Blackgrass", "setting": "[10]; [11]", "result": 40},
      {"measurement": "Plant response rating, Blackgrass", "setting": "[10]; [12]", "result": 70},
      {"measurement": "Plant response rating, Blackgrass", "setting": "[10]; [13]", "result": 70},
      {"measurement": "Plant response rating, Blackgrass", "setting": "[10]; [14]", "result": 45},
      {"measurement": "Plant response rating, Blackgrass", "setting": "[10]; [15]", "result": 90},
      {"measurement": "Plant response rating, Blackgrass", "setting": "[10]; [16]", "result": 90},
      {"measurement": "Plant response rating, Blackgrass", "setting": "[10]; [17]", "result": 90}
    ]}
  ]
}
